Reference: ChEMBL document CHEMBL3244349, “5,6,7,8-Tetrahydroguinolines. 4. Antiulcer and antisecretory activity of 5,6,7,8-tetrahydroquinolinenitriles and -thioamides” (1977)
Calls of active or inactive are those of the source. The rule behind the calls is not given here.

Legend:
[1] = tested on: Rattus norvegicus; assay: Antiulcer activity in po dosed Sprague-Dawley rat assessed as dose required to inhibition of cold-restraint induced gastric erosions after 3 hrs; format: functional, Stomach
[2] = tested on: Rattus norvegicus; assay: Antisecretory activity in four-hours pylorus-ligated Sprague-Dawley rat assessed as inhibition of basal gastric secretion at 10 mg/kg administered intraduodenally; format: functional, organism-based; design: dose 10 mg/kg; conditions: Stomach
[3] = tested on: Rattus norvegicus; assay: Antisecretory activity in four-hours pylorus-ligated Sprague-Dawley rat assessed as inhibition of basal gastric secretion at 30 mg/kg administered intraduodenally; format: functional; conditions: Stomach; for inhibition in vivo at 30 mg/kg: 4 h, route intraduodenal

Structure (SMILES)	Effective oral dose inhibiting gastric erosions [1] [mg/kg]	inhibition [2]	inhibition in vivo at 30 mg/kg [3] [%]	inhibition [3]
Cc1ccnc2c1CCCC2C(N)=S.Cl (centres undefined)	30	Active		
Cc1cnc2c(c1)CCCC2C#N.Cl (centres undefined)	100		< 70	
CC(=O)OC1(C(N)=S)CCCc2cc(C)cnc21 (centres undefined)				inactive
Cc1cnc2c(c1)CCCC2c1nc(C)cs1.Cl (centres undefined)	100			inactive
NC(=O)C1CCCc2ccc(-c3ccccc3)nc21 (centres undefined)	100			
Cc1cc2c([n+]([O-])c1)C(C#N)CCC2 (centres undefined)	100			inactive
NC(=S)C1CCCc2cc3c(nc21)CCCC3 (centres undefined)	100		< 70	
NC(=S)c1cccc2c1NCCC2				inactive
Cc1cnc2c(c1)CCCC2C(=S)N(C)C (centres undefined)	100			inactive
CNC(=S)C1CCCc2cccnc21.Cl (centres undefined)	3	Active		
CC(C)(C)c1ccc2c(n1)C(C(N)=S)CCC2 (centres undefined)	30			inactive
Cc1cnc2c(c1)CCCC2C(N)=S.Cl (centres undefined) [TIQUINAMIDE HYDROCHLORIDE]	10	Active		
CNC(=S)C1CCCc2cc3ccccc3nc21 (centres undefined)			< 10	
CCCCNC(=S)C1CCCc2cc(C)cnc21.Cl (centres undefined)	100		< 70	
Cc1cnc2c(c1)CCC2C(N)=S.Cl (centres undefined)	30			inactive
CC1CNC2C(CCCC2C(N)=S)C1 (centres undefined)				inactive
Cc1cnc2c(c1)CCCC2C1=NCCCN1.Cl (centres undefined)	100			inactive
CNC(=S)C1CCCc2cc(C)cnc21 (centres undefined)	30		< 10	
N#CC1CCCc2ccc(-c3ccccc3)nc21 (centres undefined)	100			inactive
Cc1cnc2c(c1)CCCC2(C)C(N)=S.Cl (centres undefined)	100			inactive
Cc1cnc2c(c1)CC(C)CC2C(N)=S.Cl (centres undefined)	10		> 70	
NC(=S)C1CCCc2cc3c(nc21)CCCCC3 (centres undefined)	30		< 70	
Cl.NC(=S)C1CCCc2ccc(-c3ccccc3)nc21 (centres undefined)	30			inactive
Cc1cnc2c(c1)CCCC2C(=S)Nc1ccccc1 (centres undefined)	100			inactive
N#CC1CCCc2cccnc21 (centres undefined)			< 70	
Cc1cc(-c2ccccc2)c2c(n1)C(C(N)=S)CCC2 (centres undefined)				inactive

Structure (SMILES)	Effective oral dose inhibiting gastric erosions [1] [mg/kg]	inhibition [2]	inhibition in vivo at 30 mg/kg [3] [%]	inhibition [3]
CNC(=S)C1(C(=S)NC)CCCc2cccnc21.Cl	100			inactive
Cc1cnc2c(c1)C(C)CCC2C(N)=S.Cl (centres undefined)	30	Active		
Cc1ccc2c(n1)C(C(N)=S)CCC2 (centres undefined)	10	Active		
NC(=S)Cc1ccc2c(n1)CCCC2	30			inactive
CCCCc1ccc2c(n1)C(C(N)=S)CCC2 (centres undefined)	100		< 70	
Cc1cnc2c(c1)CCCC2C1=NCCN1.Cl (centres undefined)	100			inactive
CNC(=S)C1(C(=S)NC)CCc2cc(C)cnc21	100			inactive
CNC(=S)C1(C(=S)NC)CCc2cc3ccccc3nc21.Cl	100			inactive
Cc1cnc2c(c1C)CCCC2C(N)=S (centres undefined)			> 70	
Cl.NC(=S)C1CCCCc2cc3c(nc21)CCCCC3 (centres undefined)	100			inactive
Cc1cc2c([n+]([O-])c1)C(C(N)=S)CCC2 (centres undefined)	100			inactive
NC(=S)c1cccc2cccnc12		Active		
CNC(=S)C1(OC)CCCc2cc(C)cnc21 (centres undefined)				inactive
Cc1cnc2c(c1)CCCC2C(N)=O (centres undefined)	100			
CNC(=S)C1CCCc2c1ncc1c2CCCC1 (centres undefined)	100			inactive
Cc1cnc2c(c1)CCCC2C(=S)NCc1ccccc1.Cl (centres undefined)	100			inactive
Cl.NC(=S)C1CCc2cc3c(nc21)CCC3 (centres undefined)	100		< 70	
Cc1cc(C)c2c(n1)C(C(N)=S)CCC2 (centres undefined)			< 70	
Cc1cnc2c(c1)CCC(C)(C)C2C(N)=S.Cl (centres undefined)	100			inactive
Cl.NC(=S)C1CCCc2cc3c(nc21)CCC3 (centres undefined)	100		< 70	
Cl.NC(=S)C1CCCc2cc3ccccc3nc21 (centres undefined)	30			inactive
NC(=S)C1CCCc2c1ncc1c2CCCC1 (centres undefined)	30		< 70	
Cc1cnc2c(c1)CCCC2C(=S)NCCCc1ccccc1.Cl (centres undefined)	100			inactive
Cl.NC(=S)C1CCCc2cccnc21 (centres undefined)	3	Active		
CCc1ccc2c(n1)C(C(N)=S)CCC2 (centres undefined)			< 70	
